In data set [1] the test system is KYSE-30 cells. Put plainly: Immunofluorescence staining (confocal) of cells with Cy5 conjugated peptides. It is filed as cell-based, human. Conditions: IGF2BP2-positive KYSE-30 cells, fixed and permeabilised, Cy5 conjugated peptide 80 μM overnight at 4 °C. On the procedure: Approximately 5 × 10^4 cells were seeded onto fibronectin-coated coverslips in 24-well plates and fixed with 4% paraformaldehyde until the cells reached about 50% confluence. After permeabilization with 0.5% Triton X-100 (Millipore, MA, USA) for 10 min, the cells were blocked with 5% BSA for 0.5 h and subsequently incubated with Cy5 conjugated peptides at a concentration of 80 μM overnight at 4 °C. The next day, 1 μg/mL of diaminophenyl indole (DAPI) was added to stain the nucleus after washing with phosphate-buffered saline (PBS). Thereafter, the coverslips were mounted with ProLong Gold anti-fade (Invitrogen P26930, CA, USA), and the visualizations were conducted using confocal laser-scanning microscopy (Zeiss LSM880, Oberkochen, Germany).

The subject of data set [2] is KYSE-30 xenografts. Put plainly: Near-infrared fluorescence imaging and ex vivo biodistribution in KYSE-30 bearing xenograft models. Further details: species or system mice. Here is the method:
Human esophageal cancer cell lines EC-9706, EC-109, and TE-1 were acquired from the Institute of Basic Medical Science, Chinese Academy of Medical Sciences, whereas KYSE-30, KYSE-410, KYSE-450, and KYSE-520 were obtained from the DSMZ (Deutsche Sammlung von Mikroorganismen und Zellkulturen). All cells were maintained in an incubator containing a humid atmosphere of 5% CO2 at 37 °C. All cells were cultured in RPMI-1640 medium supplemented with 10% fetal bovine serum (FBS) and penicillin-streptomycin solution. Mice aged 4 weeks were purchased from Guangdong Medical Laboratory Animal Center (Guangdong, China). Subcutaneous tumor models were constructed by subcutaneously injection of about 1 × 10^7 cells with a 20% suspension of Matrigel (Corning, NY, USA). All animal experiments were performed under a protocol approved by the Animal Ethics Committee of The Fifth Affiliated Hospital of Sun Yat-sen University.
Mice bearing subcutaneous esophageal tumors were injected with an equivalent of 50 μg Cy5-peptide via a tail vein. After circulation, the mice were anesthetized with isoflurane, and fluorescence images were captured at different time points of 10 min, 1 h, 2 h, 4 h, and 6 h by an IVIS Spectrum (PerkinElmer, MA, USA) with an excitation wavelength of 640 nm and an emission wavelength of 670 nm. The region of interest (ROI) was manually sketched to calculate the intensity of the fluorescence as mean fluorescence intensity (MFI). In addition, the tumors and main organs (bladder, liver, heart, lungs, stomach, spleen, skin, kidneys, colon, muscles, bones, and blood) were dissected and imaged for biodistribution analysis.

The test system of data set [3] is KYSE-30 cells. Put plainly: Flow cytometry of cells incubated with Cy5 conjugated peptides. The format is cell-based, human. Conditions: Cy5 conjugated peptide 50 μM, 15 min, room temperature, 10,000 gated cells. On the procedure: When the cells in the 6 cm dish were 80–90% grown, they were harvested with Accutase (Sigma-Aldrich, MO, USA) and incubated with Cy5 conjugated peptides at a concentration of 50 μM for 15 min at room temperature, protected from light. After incubation, the cells were washed 3 times with ice-cold PBS and resuspended in 200 µL of PBS. Flow cytometry was performed on a CytoFLEX LX flow cytometer (Beckman Coulter, IN, USA) and eventually, 10,000 gated cells were collected for analysis. The results were finally analyzed by flow cytometry using Flow Jo software (v7.6, BD Biosciences, OR, USA).

The target of data set [4] is recombinant IGF2BP2 protein (approximately 29 kDa) (human). Kind of data set: ELISA; phage ELISA; purified IGF2BP2 protein coated on a 96-well plate, phage clones after the third round of screening, OD at 450 nm.
Where [5] appears, read: KYSE-30 xenograft mice, 50 μg Cy5-peptide via tail vein, ROI quantification, n = 3.
Setting [6] is: ex vivo optical imaging of tumors and main organs 2 h postinjection, 50 μg i.v., n = 3.

Ends that are not written are not given here. Cy5 = Cy5 fluorescent dye

Regarding “P12-Cy5: P12 peptide conjugated to arginine-penetrating peptide (RRRRRRRR) at the C-terminus and Cy5 fluorescent group at the N-terminus (Cy5-LSMPWSPTTYASRRRRRRRR; also: linker between P12 and R8 not defined)”, the “Binding / fluorescence in confocal immunocytochemistry” value in data set [1] was “strong binding in the cytoplasm”. Also, the “Binding to IGF2BP2-positive tumors (immunofluorescence of frozen tumor sections after imaging)” value in data set [2] (KYSE-30 tumor tissue resected after imaging) is on record as “strong binding”. Also, in data set [2] (setting [5]), the TBRs over time entry is recorded as “gradually increasing over time” and the “Time at which mean fluorescence intensity (MFI) peaked” value is reported as 2 h. The “Tumor accumulation in NIRF imaging in comparison to C12-Cy5” value in data set [2] (KYSE-30 xenograft mice, 50 μg Cy5-peptide via tail vein, different time points postinjection, n = 3) is listed as “significantly higher tumor accumulation”. In addition, in data set [2] (biodistribution, KYSE-30 xenograft mice), the “Uptake in kidney relative to other organs” value is “relatively higher in the kidney than in other organs, including the tumors”. Besides, in data set [2] (setting [6]), the “Clearance route from biodistribution” value is “prominent renal clearance” and the “Enrichment in KYSE-30 tumors relative to organs (biodistribution)” value was “high in all organs except the urinary organs”. Further, the “Peak shift in flow cytometric analysis” value in data set [3] is “peak shift”.

For the molecule LSMPWSPTTYAS [P12 peptide (…) displayed on phage], the OD value (450 nm) relative to the control (times that of the control) in data set [4] turned out to be 10.
